Source: US9631170B2, “Genetically inducible hydrogen peroxide resistance and production” (University of Wyoming, priority 2011, dated 2017)

Experiments:
plant chloroplasts = conditions: H2O2 concentrations as low as 10 μM; cited from earlier work
[1] = test system: Synechococcus elongatus PCC 7942; conditions: non-linear regression of dose response data, FIG. 11; wild type vs insertional katG null mutant
Protocol: These experiments generate dose response curves for growth versus H2O2-based algaecide concentration. […] EC50 for growth rate is determined from non-linear regression curves fitted to growth rate data from 5-7 experimental replicates at 5 to 7 stress doses. To fit curves, non-linear regressions are applied to the dose response data and the fit of the regression curve to the log-logistic equation will be F-tested.
One of these strains was a wild type (WT) and one was an insertional null mutant for the major cyanobacterial catalase encoded by the katG gene.

Structure (SMILES): OO [H2O2, hydrogen peroxide]
- decrease of photosynthetic carbon fixation (plant chloroplasts): 50%
- resistance to exogenous H2O2 of wild type relative to katG null mutant lacking catalase activity [1]: ~2 fold
